Patent US20160220574A1, “NSAID AND SIGMA RECEPTOR LIGAND COMBINATIONS” (LABORATORIOS DEL DR. ESTEVE, S.A., priority 2013, published 2016)
Where two headings read alike, the source gives them in different places.

Tests used:
[1] = tested on: mechanical allodynia of the post-operative pain model in rats; test: Mechanical allodynia (von Frey filaments) in the post-operative pain model (plantar incision) in rats; assay type: in vivo; conditions: for doses producing significant effect, Sigma antagonist alone: BD1063 alone 20, 40 and 80 mg/kg, compound 63.HCl alone 10, 20, 40 and 80 mg/kg
Experimental: The induction of anesthesia in rats was performed with 3% isofluran for veterinary use, employing an Ohmeda vaporizer and an anesthesia chamber. Anesthesia was kept during the surgical operation by a tube which directs the isofluran vapors to the animal's snout. Once the rats were anesthetized, they were laid down in a prone position and their right hind paws were cleaned out with alcohol. Then, a skin incision in the hindpaw of about 10 mm was made by means of a scalpel, starting about 5 mm from the heel and extending toward the toes. Fascia was located and by means of curve scissors muscle was elevated and a longitudinal incision of about 5 mm was made, thus the muscle origin and insertion remained intact. The skin of the paw was stitched with a suturing stitch with breaded silk (3.0) and the wound was cleaned out with povidone. The assessment was performed 30 minutes after the administration of product and always 4 hours after the plantar incision. The analysis was carried out evaluating the mechanical allodynia. It was tested using von Frey filaments: Animals were placed in methacrylate cylinders on an elevated surface, with metallic mesh floor perforated in order to apply the filaments. […] The animal's response to pain was manifested by the withdrawal of the paw as a consequence of the painful stimulus caused by a filament.

[2] = tested on: D2 receptors; conditions: rodent brain membranes and human neuroblastoma cells; compared with haloperidol; cited from earlier work
[3] = tested on: σ1 receptors; conditions: rodent brain membranes and human neuroblastoma cells, cited from earlier work
[4] = tested on: sigma-1 receptors; conditions: both in experimental animals and human cells; cited from earlier work

Cc1cc(OCCN2CCOCC2)nn1-c1ccc2ccccc2c1.Cl [compound 63.HCl, 4-{2-[5-Methyl-1-(naphthalen-2-yl)-1H-pyrazol-3-yloxy]ethyl}morpholine hydrochloride]
doses producing significant effect, Sigma antagonist alone ([1]; rats): significant effect only at 40 and 80 mg/kg | maximum effect / maximum efficacy, Sigma antagonist alone ([1]; rats, compound alone (10, 20, 40 and 80 mg/kg), without sub-active dose of NSAID, 3.5 hours after surgery): 43%

COc1ccc2cc([C@H](C)C(=O)O)ccc2c1 [Naproxen]
Mean of the porcentage of analgesia in the post-operative pain model, Compounds alone ([1]; dose 0.312 mg/kg): 13% | effect of NSAID alone ([1]; rats, NSAID alone 0.312 mg/kg): no significant effect

OC1(c2ccc(Cl)cc2)CCNCC1 [metabolite I, 4-(4-chlorophenyl)-4-hydroxypiperidine]
affinity for D2 receptors [2]: no affinity | affinity for σ1 (sigma-1) receptors [3]: less affinity than haloperidol

CC(C)Cc1ccc(C(C)C(=O)O)cc1 (centres unmarked) [Ibuprofen]
Mean of the porcentage of analgesia in the post-operative pain model, Compounds alone ([1]; dose 0.625 mg/kg): 16% | effect of NSAID alone ([1]; rats, NSAID alone 0.625 mg/kg): no significant effect

Cc1cc(OCCN2CCOCC2)nn1-c1ccc2ccccc2c1 [compound 63, 4-{2-[5-Methyl-1-(naphthalen-2-yl)-1H-pyrazol-3-yloxy]ethyl}morpholine]
Mean of the porcentage of analgesia in the post-operative pain model, Compounds alone ([1]; dose 10 mg/kg): 2% | Mean of the porcentage of analgesia in the post-operative pain model, Compounds alone ([1]; dose 20 mg/kg): 15% | Mean of the porcentage of analgesia in the post-operative pain model, Compounds alone ([1]; dose 40 mg/kg): 43% | Mean of the porcentage of analgesia in the post-operative pain model, Compounds alone ([1]; dose 80 mg/kg): 41%

O=C(O)Cc1ccccc1Nc1c(Cl)cccc1Cl [Diclofenac]
Mean of the porcentage of analgesia in the post-operative pain model, Compounds alone ([1]; dose 0.625 mg/kg): 13% | effect of NSAID alone ([1]; rats, NSAID alone 0.312 mg/kg): no significant effect

Cc1c(N(C)CS(=O)(=O)O)c(=O)n(-c2ccccc2)n1C [Metamizole]
Mean of the porcentage of analgesia in the post-operative pain model, Compounds alone ([1]; dose 0.156 mg/kg): 14% | effect of NSAID alone ([1]; rats, NSAID alone 0.156 mg/kg): no significant effect

OC(CCCN1CCC(O)(c2ccc(Cl)cc2)CC1)c1ccc(F)cc1 (centres unmarked) [metabolite II, 4-(4-chlorophenyl)-[…]-(4-fluorophenyl)-4-hydroxy-1-piperidinebutanol]
blockade of sigma-1 receptors [4]: irreversible blockade | affinity for D2 receptors [2]: much lower | affinity for σ1 (sigma-1) receptors [3]: less affinity than haloperidol | affinity for σ1 (sigma-1) receptors ([3]; listed as Reduced haloperidol): high affinity (in the low nanomolar range)

CC(=O)Nc1ccc(O)cc1 [Paracetamol]
Mean of the porcentage of analgesia in the post-operative pain model, Compounds alone ([1]; dose 20 mg/kg): 13% | effect of NSAID alone ([1]; rats, NSAID alone 20 mg/kg): no significant effect

CN1CCN(CCc2ccc(Cl)c(Cl)c2)CC1 [BD1063, 1-[2-(3,4-dichlorophenyl)ethyl]-4-methylpiperazine]
ED50 ([1]; Rattus norvegicus, rats, compound alone, administered 3.5 hours after surgery, assessed 30 minutes after administration, 4 hours after plantar incision, read-out: ED50 (dose-dependent effect), Sigma antagonist alone): 56.2 mg/kg | doses producing significant effect, Sigma antagonist alone ([1]; rats): significant effect only at 40 and 80 mg/kg

Cc1ccc(-c2cc(C(F)(F)F)nn2-c2ccc(S(N)(=O)=O)cc2)cc1 [Celecoxib]
Mean of the porcentage of analgesia in the post-operative pain model, Compounds alone ([1]; dose 0.625 mg/kg): 13% | effect of NSAID alone ([1]; rats, NSAID alone 0.625 mg/kg): no significant effect
